Consider one cell line from the supplement of paper PMC10307832.

Assay in all cases: relative viability (nuclei count vs DMSO), 5 days (fraction); higher = more cells survive
Compound in the test “Entinostat + Olaparib”: Nc1ccccc1NC(=O)c1ccc(CNC(=O)OCc2cccnc2)cc1 [Entinostat] + O=C(c1cc(Cc2n[nH]c(=O)c3ccccc23)ccc1F)N1CCN(C(=O)C2CC2)CC1 [Olaparib] (partner 8 µM)
The gist of the method: (§1)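 Lung cancer cell lines, seeded in 1536-well plates, were treated the following day by pin tool with a single drug or with five library-drug doses (not always all listed) in √10 steps on top of a fixed anchor-drug dose. Cells were fixed and nuclei stained in one step after 5 days, and nuclei were counted. Relative viability is the nuclei count for treated wells divided by that for vehicle wells, reported as medians of duplicate plates.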

Compound in test [1]: C1COCCN1C2=NC(=NC3=C2OC4=C3C=CC=N4)C5=CC(=CC=C5)NC(=O)C6=CN=C(C=C6)N + N=C(N)NC(=N)NCCc1ccccc1 [Phenformin] (partner 250 µM)
The gist of the method: as §1

Compound in the test “SGI-1776 + Navitoclax”: CN1CCC(CNc2ccc3ncc(-c4cccc(OC(F)(F)F)c4)n3n2)CC1 [SGI-1776] + CC1(C)CCC(c2ccc(Cl)cc2)=C(CN2CCN(c3ccc(C(=O)NS(=O)(=O)c4ccc(N[C@H](CCN5CCOCC5)CSc5ccccc5)c(S(=O)(=O)C(F)(F)F)c4)cc3)CC2)C1 [Navitoclax] (partner 0.5 µM)
In a few lines:
as §1

Compound in the test “Entinostat + Pemetrexed”: Nc1ccccc1NC(=O)c1ccc(CNC(=O)OCc2cccnc2)cc1 [Entinostat] + Nc1nc2[nH]cc(CCc3ccc(C(=O)N[C@@H](CCC(=O)O)C(=O)O)cc3)c2c(=O)[nH]1 [Pemetrexed] (partner 0.2 µM)
In a few lines: as §1

Regarding UMC-11, the relative viability with Entinostat + Olaparib (first compound 0.02 µM) turned out to be 0.376; with Entinostat + Olaparib (first compound 0.06325 µM), 0.345; in the test with Entinostat + Olaparib (first compound 0.2 µM), 0.242; in the test with Entinostat + Olaparib (first compound 0.6325 µM), 0.116; with Entinostat + Olaparib (first compound 2 µM) it was 0.0922; in test [1] (first compound 0.02 µM) it was 0.302. The relative viability in test [1] (first compound 0.06325 µM) is 0.327; in test [1] (first compound 0.2 µM) it was 0.33; in test [1] (first compound 0.6325 µM) it was 0.308; in test [1] (first compound 2 µM), 0.204; in the test with SGI-1776 + Navitoclax (first compound 0.08 µM), 0.265; with SGI-1776 + Navitoclax (first compound 0.8 µM), 0.32. For the same cell line, the relative viability with SGI-1776 + Navitoclax (first compound 2.53 µM) was 0.275; with SGI-1776 + Navitoclax (first compound 8 µM) it was 0.264; with Entinostat + Pemetrexed (first compound 0.02 µM) it was 0.733; with Entinostat + Pemetrexed (first compound 0.06325 µM), 0.738; in the test with Entinostat + Pemetrexed (first compound 0.2 µM), 0.5; with Entinostat + Pemetrexed (first compound 0.6325 µM) it was 0.346. In addition, in the test with Entinostat + Pemetrexed (first compound 2 µM), the relative viability worked out at 0.145.
